In US20080194616A1, “PYRIDOPYRIMIDINONE COMPOUNDS USEFUL IN TREATING SODIUM CHANNEL-MEDIATED DISEASES OR CONDITIONS” (Xenon Pharmaceuticals Inc., priority 2007, published 2008):
Where a name gives a salt, the structure may show the parent alone.

System: not given
Assay: not given
Details: not given
For `CCCCc1nc2ccccn2c(=O)c1-c1ccc(Cl)cc1C` [Example 1.9, 2-butyl-3-(4-chloro-2-methylphenyl)-4H-pyrido[1,2-a]pyrimidin-4-one], the melting point was 105 to 107 °C.
In the case of `CC(C)CCc1nc2ccccn2c(=O)c1-c1ccc(Cl)cc1` [Example 1.17, 3-(4-chlorophenyl)-2-isopentyl-4H-pyrido[1,2-a]pyrimidin-4-one], the melting point is reported as 146 to 149 °C.
Molecule `CCCCc1nc2ccccn2c(=O)c1-c1ccc(NC2CCNCC2)cc1` (as salt: hydrochloride) [Example 6.1, 2-butyl-3-[4-(piperidin-4-ylamino)phenyl]-4H-pyrido[1,2-a]pyrimidin-4-one hydrochloride] has a melting point greater than 220 °C.
In the case of `CCCCc1nc2ccccn2c(=O)c1-c1ccc(N[C@@H]2CCNC2)cc1C` (as salt: hydrochloride) [Example 7.3, (R)-2-butyl-3-{2-methyl-4-[pyrrolidin-3-ylamino]phenyl}-4H-pyrido[1,2-a]pyrimidin-4-one hydrochloride], the melting point is reported as 179 to 187 °C.
`CCCCc1nc2ccccn2c(=O)c1-c1ccc(N[C@H]2CCNC2)cc1` (as salt: hydrochloride) [Example 7.1, (S)-2-butyl-3-{4-[pyrrolidin-3-ylamino]phenyl}-4H-pyrido[1,2-a]pyrimidin-4-one hydrochloride] showed a melting point of 164 to 171 °C.
For `O=c1c(-c2ccc(N[C@@H]3CCNC3)cc2)c(N2CCCC2)nc2ccccn12` (as salt: chloride) [Example 7.11, (R)-2-pyrrolidin-1-yl-3-{4-[pyrrolidin-3-ylamino]phenyl}-4H-pyrido[1,2-a]pyrimidin-4-one hydrogen chloride], the melting point was 177 to 183 °C.
`CCc1nc2ccccn2c(=O)c1-c1ccc(N[C@@H]2CCNC2)cc1` (as salt: hydrochloride) [Example 6.4, (R)-2-ethyl-3-(4-(pyrrolidin-3-ylamino)phenyl)-4H-pyrido[1,2-a]pyrimidin-4-one hydrochloride] showed a melting point of 175 to 182 °C.
Molecule `CCCCc1nc2ccccn2c(=O)c1-c1ccc(Cl)c(C)c1` [Example 1.10, 2-butyl-3-(4-chloro-3-methylphenyl)-4H-pyrido[1,2-a]pyrimidin-4-one] has a melting point of 122 to 124 °C.
Work on `CCCCc1nc2ccccn2c(=O)c1-c1ccc(N[C@@H]2CCCNC2)cc1` (as salt: hydrochloride) [Example 6.2, (R)-2-butyl-3-{4-[piperidin-3-ylamino]phenyl}-4H-pyrido[1,2-a]pyrimidin-4-one hydrochloride] yielded a melting point of 190 to 210 °C.
Molecule `CCCCc1nc2ccccn2c(=O)c1-c1ccc(OS(=O)(=O)C(F)(F)F)cc1` (as salt: methanesulfonate) [Example 12, 4-(2-butyl-4-oxo-4H-pyrido[1,2-a]pyrimidin-3-yl)phenyl trifluoromethanesulfonate] has a melting point of 106 to 108 °C.
With `CCCCc1nc2ccccn2c(=O)c1-c1ccc(OC)c(Cl)c1` [Example 1.13, 2-butyl-3-(3-chloro-4-methoxyphenyl)-4H-pyrido[1,2-a]pyrimidin-4-one] the melting point was 113 to 115 °C.
For `CCCCc1nc2ccccn2c(=O)c1-c1ccc(NC[C@@H]2CCCO2)cc1` (as salt: hydrochloride) [Example 3.28, (S)-2-butyl-3-(4-{[tetrahydrofuran-2-ylmethyl]amino}phenyl)-4H-pyrido[1,2-a]pyrimidin-4-one hydrochloride], the melting point was 155 to 170 °C.
Molecule `CCCCc1nc2ccccn2c(=O)c1-c1ccc2c(c1)CCN2C1CCNC1` (stereo not drawn) (as salt: hydrochloride) [Example 7.12, 2-butyl-3-(1-(pyrrolidin-3-yl)indolin-5-yl)-4H-pyrido[1,2-a]pyrimidin-4-one hydrochloride] has a melting point of 159 to 163 °C.
`CCCCc1nc2ccccn2c(=O)c1-c1ccc(N[C@@H]2CCNC2)c(F)c1` (as salt: hydrochloride) [Example 7.2, (R)-2-butyl-3-{3-fluoro-4-[(pyrrolidin-3-ylamino]phenyl}-4H-pyrido[1,2-a]pyrimidin-4-one hydrochloride] gave a melting point of 143 to 155 °C.
`CCCCc1nc2ccccn2c(=O)c1-c1ccc(NC2CCNC2)cc1` (stereo not drawn) (as salt: hydrochloride) [Example 7, 2-butyl-3-(4-(pyrrolidin-3-ylamino)phenyl)-4H-pyrido[1,2-a]pyrimidin-4-one hydrochloride] showed a melting point of 136 to 139 °C.
Molecule `CCCCc1nc2ccccn2c(=O)c1-c1ccc(N[C@@H]2CCOC2)cc1` (as salt: hydrochloride) [Example 3.29, (R)-2-butyl-3-{4-[tetrahydrofuran-3-ylamino]phenyl}-4H-pyrido[1,2-a]pyrimidin-4-one hydrochloride] has a melting point of 135 to 145 °C.

System: sodium channel
Assay: Guanidine Influx Assay (In Vitro Assay)
Format: cell-based, human or rat
Details: known cell line that expresses a sodium channel; read-out: IC50 Activity Level
From the text: This example describes an in vitro assay for testing and profiling test agents against human or rat sodium channels stably expressed in cells of either an endogenous or recombinant origin. The assay is also useful for determining the IC-50 of a sodium channel blocking compound. The assay is based on the guanidine flux assay described by Reddy, N. L., et al., J. Med. Chem. (1998), 41(17):3298-302.
The guanidine influx assay is a radiotracer flux assay used to determine ion flux activity of sodium channels in a high-throughput microplate-based format. The assay uses ^14C-guanidine hydrochloride in combination with various known sodium channel modulators, to assay the potency of test agents. Potency is determined by an IC-50 calculation. Selectivity is determined by comparing potency of the compound for the channel of interest to its potency against other sodium channels (also called ‘selectivity profiling’).
Each of the test agents is assayed against cells that express the channels of interest. Voltage gated sodium channels are either TTX sensitive or insensitive. This property is useful when evaluating the activities of a channel of interest when it resides in a mixed population with other sodium channels. The following Table 1 summarizes cell lines useful in screening for a certain channel activity in the presence or absence of TTX.
Cells expressing the channel of interest are grown according to the supplier or in the case of a recombinant cell in the presence of selective growth media such as G418 (Gibco/Invitrogen). The cells are disassociated from the culture dishes with an enzymatic solution (1×) Trypsin/EDTA (Gibco/Invitrogen) and analyzed for density and viability using haemocytometer (Neubauer). Disassociated cells are washed and resuspended in their culture media then plated into Scintiplates (Beckman Coulter Inc.) (approximately 100,000 cells/well) and incubated at 37° C./5% CO2. for 20-24 hours. After an extensive wash with Low sodium HEPES-buffered saline solution (LNHBSS) (150 mM Choline Chloride, […] (Sigma), 1 mM Calcium Chloride, 5 mM Potassium Chloride, 1 mM Magnesium Chloride, 10 mM Glucose) agents diluted with LNHBSS are added to each well. (Varying concentrations of test agent may be used). The activation/radiolabel mixture contains aconitine (Sigma), and ^14C-guanidine hydrochloride (ARC).
After loading the cells with test agent and activation/radiolabel mixture, the Scintiplates are incubated at ambient temperature. Following the incubation, the Scintplates are extensively washed with LNHBSS supplemented with guanidine (Sigma). The Scintiplates are dried and then counted using a Wallac MicroBeta TriLux (Perkin-Elmer Life Sciences). The ability of the test agent to block sodium channel activity is determined by comparing the amount of ^14C-guanidine present inside the cells expressing the different sodium channels.
IC-50 value of a test agent for a specific sodium channel may be determined using the above general method. IC-50 may be determined using a 3,8,10,12 or 16 point curve in duplicate or triplicate with a starting concentration of 1, 5 or 10 μM diluted serially with a final concentration reaching the sub-nanomolar, nanomolar and low micromolar ranges. Typically the mid-point concentration of test agent is set at 1 μM, and sequential concentrations of half dilutions greater or smaller are applied (e.g. 0.5 μM; […] and 0.25 μM; 10 μM and 0.125 μM; 20 μM etc.). The IC-50 curve is calculated using the 4 Parameter Logistic Model or Sigmoidal Dose-Response Model formula (fit=(A+((B−A)/(1+((C/x)̂D)))).
With `CCCCc1nc2ccccn2c(=O)c1-c1ccc(NC2CCCNC2)cc1` (stereo not drawn) [Example 6, 2-butyl-3-[4-(piperidin-3-ylamino)phenyl]-4H-pyrido[1,2-a]pyrimidin-4-one hydrochloride] the IC50 was no less than 10 µM.
With `CCCCc1nc2ccccn2c(=O)c1-c1ccc2c(c1)CCN2` [Example 2, 2-butyl-3-(indolin-5-yl)-4H-pyrido[1,2-a]pyrimidin-4-one hydrochloride] the IC50 was no less than 10 µM.
With `Cc1nc2ccccn2c(=O)c1-c1ccc(N[C@@H]2CCNC2)cc1` [Example 6.3, (R)-2-methyl-3-(4-(pyrrolidin-3-ylamino)phenyl)-4H-pyrido[1,2-a]pyrimidin-4-one hydrochloride] the IC50 was no less than 10 µM.
Molecule `CCCCc1nc2ccc(Cl)cn2c(=O)c1-c1ccc(O)cc1` [Example 13, 2-butyl-7-chloro-3-(4-hydroxyphenyl)-4H-pyrido[1,2-a]pyrimidin-4-one] has an IC50 of no less than 10 µM.
Molecule `CCCCc1nc2ccccn2c(=O)c1-c1ccc(Cl)cc1` [Example 1.8, 2-butyl-3-(4-chlorophenyl)-4H-pyrido[1,2-a]pyrimidin-4-one] has an IC50 of no less than 10 µM.
For `CCc1nc2ccccn2c(=O)c1-c1ccc(N[C@@H]2CCNC2)cc1` [Example 6.4, (R)-2-ethyl-3-(4-(pyrrolidin-3-ylamino)phenyl)-4H-pyrido[1,2-a]pyrimidin-4-one hydrochloride], the IC50 was no less than 10 µM.
With `CCCCc1nc2ccccn2c(=O)c1-c1ccc(NC[C@H]2CCCO2)cc1` [Example 3.27, (R)-2-butyl-3-(4-{[tetrahydrofuran-2-ylmethyl]amino}phenyl)-4H-pyrido[1,2-a]pyrimidin-4-one hydrochloride] the IC50 was no less than 10 µM.
For `CCCCc1nc2ccccn2c(=O)c1-c1cccc(NC2CCNC2)c1` (stereo not drawn) [Example 7.4, 2-butyl-3-[3-(pyrrolidin-3-ylamino)phenyl]-4H-pyrido[1,2-a]pyrimidin-4-one hydrochloride], the IC50 was no less than 10 µM.
In the case of `CCCCc1nc2cc(C(F)(F)F)ccn2c(=O)c1-c1ccc(N[C@@H]2CCNC2)cc1` [Example 6.8, (R)-2-butyl-3-{4-[pyrrolidin-3-ylamino]phenyl}-8-(trifluoromethyl)-4H-pyrido[1,2-a]pyrimidin-4-one hydrochloride], the IC50 is reported as no less than 10 µM.
`CC(C)CCc1nc2ccccn2c(=O)c1-c1ccc(N[C@@H]2CCNC2)cc1` [Example 7.6, (R)-2-isopentyl-3-(4-(pyrrolidin-3-ylamino)phenyl)-4H-pyrido[1,2-a]pyrimidin-4-one hydrochloride] showed an IC50 of no less than 10 µM.
With `CCCCc1nc2ccccn2c(=O)c1-c1ccc(NC2CCNC2)cc1` (stereo not drawn) [Example 7, 2-butyl-3-(4-(pyrrolidin-3-ylamino)phenyl)-4H-pyrido[1,2-a]pyrimidin-4-one hydrochloride] the IC50 was no less than 10 µM.
